Assay results published in patent publication US7897162B2, “Arthropod repellent pharmacophore models, compounds identified as fitting the pharmacophore models, and methods of making and using thereof” (The United States of America as represented by the …, priority 2003, dated 2011).

Tests used:
arthropod = details: Table 1, training set of 11 repellents; protection (repelling) time; cited from earlier work
mosquitoes = details: cited from earlier work
arthropods [1] = experiment: Arthropod repellent test of short-listed compounds found by pharmacophore database search; assay type: in vivo; details: for Experimental PT: Table 3, compounds identified by database search; for repellent activity against arthropods (in words): short list of 138 compounds from in-house CIS screened
Source text: As provided in Example 4, the pharmacophore model of the present invention was used to search three-dimensional multiconformer databases, including an in-house Chemical Information System (Chemical Information System, Division of Experimental Therapeutics, Walter Reed Army Institute of Research, Silver Spring, Md.), National Cancer Institute, IBS and Maybridge databases, to screen for potential new repellent agents. The Chemical Information System database has over 240,000 compounds and was transformed into a multiconformer database in CATALYST® using the catDB® utility program as implemented in the software. The catDB® format allows a molecule to be represented by a limited set of conformations thereby permitting conformational flexibility to be included during the search of the database.
Specifically, the three-dimensional pharmacophore of the present invention was used as a template for search various three-dimensional multi-conformer databases. Three-dimensional multi-conformer databases of molecules comprise all possible conformations of the three-dimensional structure of each molecule in the database within an energy range of 0 to 25 kcal/mol. The three-dimensional structures in the databases were mapped to or compared with the three-dimensional pharmacophore of the present invention to identify compounds having the same or similar three-dimensional conformations.
The compounds were short listed on the basis of their ADME (Absorption, Distribution, Metabolism, and Excretion) properties and were evaluated by rapid in silico screening using Cerus^2ADME methodology. See Cerius^2ADME. Accelrys Inc. (2003) San Diego, Calif. The short listed compounds were then tested for arthropod repellent property using methods known in the art. See e.g. Debboun, et al. (1999) J. Am. Mosq. Cont. Assoc. 15(3):342-347; and Gupta, R K and Rutledge, L C (1991) J. Am. Mosq. Cont. Assoc. 7:490-493, which are herein incorporated by reference.
Three-dimensional multiconformer databases, including an in-house Chemical Information System (Chemical Information System, Division of Experimental Therapeutics, Walter Reed Army Institute of Research, Silver Spring, Md.), National Cancer Institute, IBS and Maybridge databases, were screened for potential new repellent agents using the pharmacophore model of the present invention. The Chemical Information System database of the Division of Experimental Therapeutics, WRAIR is a database of more than 245,000 proprietary compounds. By using the catDB utility program of the CATALYST®, the database was transformed into a multi-conformer based 3D database. The database searching protocol in the CATALYST® involves a rapid 3D screening process followed by a rigorous atom-by-atom mapping in which a fairly comprehensive set of features including the chemical features of the pharmacophore are considered. In addition to the traditional pharmacophore based searching, 3D shape similarity and partial match searching may also be performed. See Kurogi, Y and Gunner, O F (2001) Current Medicinal Chemistry 8:1035-1055, which is herein incorporated by reference.

white rats = details: cited from earlier work
arthropods [2] = details: under warm, humid conditions; cited from earlier work

Compound	Experimental PT (arthropod)	Experimental PT (arthropods [1])	also measured
CCCCN1C(O)=CC(C)c2ccccc21 (centres unmarked)	2.0 h	–	–
CCCCCCCCC(O)C1CCC(CCCCC(=O)O)O1 (centres unmarked) [5-[5-(1-hydroxy-nonyl)-tetrahydro-furan-2-yl]-pentanoic acid]	–	–	landing and feeding deterrence (mosquitoes): acts as a landing and feeding deterrent for mosquitoes
CCN(CC)C(=O)c1cccc(C(F)(F)F)c1 [N,N-diethyl-3-trifluoromethyl-benzamide]	–	0.5 h	–
CCCCON1CN(C)N(OCCCC)C1=O	0.6 h	–	–
CCCN(CCC)C(=O)COCc1ccccc1	0.5 h	–	–
O=C(OCCCO)c1ccccc1	7.5 h	–	–
CCN(CC)C(=O)c1ccccc1Cl	1.2 h	–	–
CC(C)COC(=O)CC(O)C(=O)OCC(C)C (centres unmarked)	2.5 h	–	–
CCCCC(CC)(CO)CO	1.7 h	–	–
CCN(CC)C(=O)Cc1cccc(C(F)(F)F)c1 [N,N-diethyl-2-(3-trifluoromethyl-phenyl)-acetamide]	–	0.14 h	–
Cc1cc(C)c(C)c(C(=O)C(C)C)c1C [2-methyl-1-(2,3,5,6-tetramethyl-phenyl)-propan-1-one]	–	9.3 h	repellent activity against arthropods (in words) (arthropods [1]): found to exhibit repellent activity against arthropods
CCN(CC)C(=O)CC1CCCCC1 [2-cyclohexyl-N,N-diethylacetamide]	–	0.24 h	–
C=CCSc1nccnc1C [2-allylsulfanyl-3-methyl-pyrazine]	–	1.6 h	repellent activity against arthropods (in words) (arthropods [1]): found to exhibit repellent activity against arthropods
ClOc1c(Cl)c(Cl)c(Cl)c(Cl)c1Cl	0.2 h	–	–
CCOc1ccccc1C(=O)N(CC)CC	0.5 h	–	–
CCN(CC)C(=O)Cc1cccc(Br)c1 [N,N-diethyl-2-(3-bromo-phenyl)-acetamide]	–	0.63 h	–
CCN(CC)C(=O)c1cccc(C)c1 [DEET, N,N-diethyl-m-toluamide]	1.0 h	–	toxicity on regular skin application (white rats): gonadotoxic and embryotoxic; duration of application (arthropods [2]): 1 to 2 h
CCCN(CCC)C(=O)c1ccccc1OCC	0.3 h	–	–
COc1ccc(OC)c(C(=O)CBr)c1 [2-bromo-1-(2,5-dimethoxy-phenyl)-ethanone]	–	2.6 h	repellent activity against arthropods (in words) (arthropods [1]): found to exhibit repellent activity against arthropods
CC(C)(Oc1ccccc1Cl)C(N)=O [2-(2-chloro-phenoxy)-2-methyl-propionamide]	–	2.6 h	repellent activity against arthropods (in words) (arthropods [1]): found to exhibit repellent activity against arthropods
